Experimental findings from patent US12428415B2, “Matriptase 2 inhibitors and uses thereof” (Disc Medicine, Inc., priority 2018, dated 2025) are described below.

The first experiment has as its target T1, Human Recombinant Matriptase 2 (Homo sapiens, UniProt Q8IU80).
T1 construct: purchased Enzo Life Sciences (an in-house preparation was also used) ALX-201-752-1
T1 sequence (Q8IU80 1-811): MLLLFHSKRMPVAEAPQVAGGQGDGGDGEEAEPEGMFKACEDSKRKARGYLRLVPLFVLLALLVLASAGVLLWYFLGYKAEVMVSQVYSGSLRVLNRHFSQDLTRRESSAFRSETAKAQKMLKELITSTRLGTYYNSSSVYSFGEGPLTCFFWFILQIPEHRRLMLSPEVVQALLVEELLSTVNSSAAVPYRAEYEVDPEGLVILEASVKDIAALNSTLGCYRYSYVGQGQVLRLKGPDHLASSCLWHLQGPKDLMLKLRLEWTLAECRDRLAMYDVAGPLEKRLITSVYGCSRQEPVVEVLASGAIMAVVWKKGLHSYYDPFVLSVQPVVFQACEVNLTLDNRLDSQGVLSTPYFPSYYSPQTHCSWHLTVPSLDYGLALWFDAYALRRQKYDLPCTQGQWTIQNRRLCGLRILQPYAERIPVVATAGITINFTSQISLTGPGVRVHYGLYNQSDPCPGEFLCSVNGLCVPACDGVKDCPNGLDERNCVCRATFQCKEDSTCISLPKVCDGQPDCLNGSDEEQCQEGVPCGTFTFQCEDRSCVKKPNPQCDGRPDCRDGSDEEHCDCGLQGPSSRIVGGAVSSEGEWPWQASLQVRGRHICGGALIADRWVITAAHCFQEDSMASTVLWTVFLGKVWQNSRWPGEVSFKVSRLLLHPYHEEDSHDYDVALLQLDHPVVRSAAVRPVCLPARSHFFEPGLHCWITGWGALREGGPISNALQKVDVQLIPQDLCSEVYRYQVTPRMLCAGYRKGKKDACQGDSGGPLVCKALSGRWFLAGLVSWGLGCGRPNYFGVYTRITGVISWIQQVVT
In words: Matriptase 2 fluorescence based inhibition assay, Method A (100 mM TRIS pH 9, 1 mg/mL BSA). In kind it is biochemical. Particulars: 1 uM compound; Assay Used = A; read-out: Mar-2 % inhibition at 1 uM. A digest of the protocol:
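Enzyme (7 nM commercial or 15 nM in-house) preincubated 30 min with compound in 100 mM TRIS pH 9, 1 mg/mL BSA, 1% DMSO at 25° C. Boc-Gln-Ala-Arg-AMC substrate at 100 μM; fluorescence (Ex 360/Em 480 nm) read 60 min later. Screened at 1 and 10 μM; IC50 from variable-slope sigmoidal fit.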
The term inhibition denotes the relative decrease from the control value, in per cent. In the case of `COc1ccc2cc(Cn3c(C(=O)N[C@H]4CC[C@H](N)CC4)cc4ccc(/C(N)=N\O)cc43)ccc2c1` [Compound I-401], the inhibition at 1 µM is 0 to 25%.

The experiment is the same for the next values; noted with them: 1 uM; Assay Used A; read-out: Mar-2 % inhibition at 1 uM.
Turning to `CN1CCC(N(C)C(=O)c2cc3ccc(C(=N)N)cc3n2Cc2ccc(C(N)=O)cc2)C1` (stereo not shown) [Compound I-103, 6-Carbamimidoyl-1-(4-carbamoylbenzyl)-N-methyl-N-(1-methylpyrrolidin-3-yl)-1H-indole-2-carboxamide], the inhibition at 1 µM lay in the range of 0 to 25%. Still for that read-out and setting: for `N=C(N)c1ccc2cc(C(=O)Nc3cc(F)cc(Br)c3)n(Cc3ccc(C(N)=O)cc3)c2c1` [Compound I-126] the value was 0 to 25%; for `CCOC(=O)NC(=N)c1ccc2cc(C(=O)Nc3ccc(N4CCCC4)cc3)n(Cc3ccc(C(N)=O)cc3)c2c1` [Compound I-119], 0 to 25%. On the same count and under the same terms, in the case of `N=C(N)c1ccc2cc(C(=O)NCc3cc(F)cc(F)c3)n(Cc3ccc(C(N)=O)cc3)c2c1` [Compound I-80] it was 0 to 25%; in that of `N=C(N)c1ccc2cc(C(=O)Nc3ccc(N4CCCC4)nc3)n(Cc3ccc(C(N)=O)cc3)c2c1` [Compound I-177], 0 to 25%; in that of `CC1CCC(NC(=O)c2cc3ccc(C(=N)N)cc3n2Cc2ccc(C(N)=O)cc2)CC1` (stereo not shown) [Compound I-185], 0 to 25%. Still for that read-out and setting: in the case of `N=C(N)c1ccc2cc(C(=O)NCC3CCCCC3)n(Cc3ccc(C(F)(F)F)cc3)c2c1` [Compound I-10] it was 25 to 50%; in that of `CN(C)C(=O)COc1cccc(NC(=O)c2cc3ccc(C(=N)N)cc3n2Cc2ccc(C(N)=O)cc2)c1` [Compound I-93], 0 to 25%; in that of `N=C(N)c1ccc2cc(C(=O)Nc3cccc4cnccc34)n(Cc3ccc(C(N)=O)cc3)c2c1` [Compound I-73], 25 to 50%. Regarding `CN(C)CC(=O)O/N=C(\N)c1ccc2cc(C(=O)Nc3cccc(N4CCCC4)c3)n(Cc3ccc(C(N)=O)cc3)c2c1` [Compound I-135, 1-(4-Carbamoylbenzyl)-6-(N′-(2-(dimethylamino)acetoxy)carbamimidoyl)-N-(3-(pyrrolidin-1-yl)phenyl)-1H-indole-2-carboxamide], the inhibition at 1 µM lay within 0 to 25%.

As for `C[C@H]1CCCN1c1cccc(NC(=O)c2cc3ccc(C(=N)N)cc3n2Cc2ccc(C(N)=O)cc2)c1` [Compound I-124], the inhibition at 1 µM is 0 to 25%. The same measure, in the same setting: for `CCOC(=O)Nc1c(C(=O)NC2CCC(N)CC2)n(CCS(=O)(=O)c2ccccc2)c2cc(/C(N)=N/O)ccc12` (stereo not shown) [Compound I-57, Ethyl (2-(((1r,4r)-4-aminocyclohexyl)carbamoyl)-6-((Z)—N′-hydroxycarbamimidoyl)-1-(2-(phenylsulfonyl)ethyl)-1H-indol-3-yl)carbamate] the value was 0 to 25%.

Regarding `N=C(N)c1ccc2cc(C(=O)Nc3ccc(-c4ccccc4)cc3)n(Cc3ccc(C(N)=O)cc3)c2c1` [Compound I-66], the inhibition at 1 µM was in the range of 0 to 25%. Same read-out and setting: in the case of `N=C(N)c1ccc2cc(C(=O)Nc3cccc(-n4cc(C(F)(F)F)cn4)c3)n(Cc3ccc(C(N)=O)cc3)c2c1` [Compound I-165] it was 0 to 25%; in that of `N=C(N)c1ccc2cc(C(=O)Nc3ccc(F)nc3)n(Cc3ccc(C(N)=O)cc3)c2c1` [Compound I-173], 0 to 25%; in that of `COC(=O)NC(=N)c1ccc2cc(C(=O)Nc3ccc(N4CCCC4)cc3)n(Cc3ccc(C(N)=O)cc3)c2c1` [Compound I-118, Methyl ((1-(4-carbamoylbenzyl)-2-((4-(pyrrolidin-1-yl)phenyl)carbamoyl)-1H-indol-6-yl)(imino)methyl)carbamate], 0 to 25%. Regarding `N=C(N)c1ccc2cc(C(=O)N[C@H](CO)c3ccccc3)n(Cc3ccc(C(N)=O)cc3)c2c1` [Compound I-86], the inhibition at 1 µM fell in the range of 0 to 25%. Still for that read-out and setting: in the case of `N=C(N)c1ccc2cc(C(=O)Nc3ccc(C(N)=O)cc3)n(CCc3ccccc3)c2c1` [Compound I-25] it was 0 to 25%; in that of `N=C(N)c1ccc2cc(C(=O)NCC3CCOCC3)n(Cc3ccc(C(N)=O)cc3)c2c1` [Compound I-192], 0 to 25%. Still for that read-out and setting: in the case of `C[C@@H](NC(=O)c1cc2ccc(C(=N)N)cc2n1Cc1ccc(C(N)=O)cc1)C1CCCCC1` [Compound I-194] it was 0 to 25%; in that of `CC[C@@H](NC(=O)c1cc2ccc(C(=N)N)cc2n1Cc1ccc(C(N)=O)cc1)c1ccccc1` [Compound I-96], 25 to 50%; in that of `NC(=O)c1ccc(Cn2c(C(=O)Nc3cccc(N4CCCC4)c3)cc3ccc(C(N)=O)cc32)cc1` [Compound I-117, 1-(4-Carbamoylbenzyl)-N^2-(3-(pyrrolidin-1-yl)phenyl)-1H-indole-2,6-dicarboxamide], 0 to 25%. With `N=C(N)c1ccc2cc(C(=O)NC3CCC(F)(F)CC3)n(Cc3ccc(C(N)=O)cc3)c2c1` [Compound I-190], the inhibition at 1 µM lay within 0 to 25%.

`N=C(N)c1ccc2cc(C(=O)Nc3cccc(-c4ncc[nH]4)c3)n(Cc3ccc(C(N)=O)cc3)c2c1` [Compound I-137]: the inhibition at 1 µM was in the range of 25 to 50%. Still for that read-out and setting: in the case of `N=C(N)c1ccc2cc(C(=O)Nc3ccc4ncsc4c3)n(Cc3ccc(C(N)=O)cc3)c2c1` [Compound I-88] it was 0 to 25%; in that of `N=C(N)c1ccc2cc(C(=O)NCC3CCC(F)(F)CC3)n(CCS(=O)(=O)c3ccccc3)c2c1` [Compound I-54], 0 to 25%.

The experiment is the same for the next values; noted with them: at 1 uM; Assay Used = A; read-out: Mar-2 % inhibition at 1 uM.
On to `N=C(N)c1ccc2cc(C(=O)N3CCC(F)(F)C3)n(Cc3ccc(C(F)(F)F)cc3)c2c1` [Compound I-285], for which the inhibition at 1 µM is 0 to 25%. Same read-out and setting: in the case of `N=C(N)c1ccc2cc(C(=O)N3CCC(F)(F)CC3)n(Cc3ccc(NC(=O)CCN)cc3)c2c1` [Compound I-374] it was 0 to 25%; in that of `N=C(N)c1ccc2cc(C(=O)N3CCC(CCN)CC3)n(CCS(=O)(=O)c3ccccc3)c2c1` [Compound I-337], 0 to 25%. Regarding `CCOC(=O)Nc1c(C(=O)N[C@H]2CC[C@H](N)CC2)n(Cc2ccc(Oc3ccccc3)cc2)c2cc(C(=N)NO)ccc12` [Compound I-254, Ethyl (2-(((1r,4r)-4-aminocyclohexyl)carbamoyl)-6-((Z)—N′-hydroxycarbamimidoyl)-1-(4-phenoxybenzyl)-1H-indol-3-yl)carbamate], the inhibition at 1 µM lay in the range of 25 to 50%. On the same count and under the same terms, for `N=C(N)c1ccc2cc(C(=O)NC3CCC(N)CC3)n(Cc3ccc(Oc4ccc(F)cc4)cc3)c2c1` (stereo not shown) [Compound I-243] the value was 50 to 75%. The same measure, in the same setting: in the case of `N=C(N)c1ccc2cc(C(=O)N3CC[C@@H](F)C3)n(CCS(=O)(=O)c3ccccc3)c2c1` [Compound I-341] it was 0 to 25%; in that of `N=C(N)c1ccc2cc(C(=O)N3CCCC(F)(F)C3)n(Cc3ccc(C(N)=O)cc3)c2c1` [Compound I-328], 0 to 25%.

`NC(=O)c1ccc(Cn2c(C(=O)Nc3cc(N4CCCC4)ccn3)cc3ccc(/C(N)=N/O)cc32)cc1` [Compound I-269, 1-(4-Carbamoylbenzyl)-6-(N′-hydroxycarbamimidoyl)-N-(4-(pyrrolidin-1-yl)pyridin-2-yl)-1H-indole-2-carboxamide]: the inhibition at 1 µM was 0 to 25%. The same measure, in the same setting: for `N=C(N)c1ccc2cc(C(=O)N3CCC(CCN)CC3)n(Cc3ccc(Oc4ccc(F)cc4)nc3)c2c1` [Compound I-317] the value was 25 to 50%; for `CCOC(=O)c1ccc(Cn2c(C(=O)N3CCC(CCN)CC3)c(N)c3ccc(C(=N)N)cc32)cc1` [Compound I-346], 0 to 25%. On the same count and under the same terms, for `N=C(N)NCCC1CCN(C(=O)c2cc3ccc(C(=N)N)cc3n2Cc2ccc3ccccc3c2)CC1` [Compound I-360] the value was 25 to 50%. Still for that read-out and setting: for `N=C(N)c1ccc2cc(C(=O)N3CC[C@H](F)C3)n(Cc3cccc(NC(=O)CCN)c3)c2c1` [Compound I-368] the value was 0 to 25%; for `NCCC1CCN(C(=O)c2cc3ccc(/C(N)=N\O)cc3n2Cc2ccc(-c3ccccc3)cc2)CC1` [Compound I-380], 0 to 25%; for `CNC(=O)c1ccc(Cn2c(C(=O)NCC3CCCCC3)cc3ccc(C(=N)N)cc32)cc1` [Compound I-215, 6-Carbamimidoyl-N-(cyclohexylmethyl)-1-(4-(methylcarbamoyl)benzyl)-1H-indole-2-carboxamide], 0 to 25%. For `N=C(N)c1ccc2cc(C(=O)NCC3CCCCC3)n(Cc3ccc(B(O)O)cc3)c2c1` [Compound I-231], the inhibition at 1 µM lay within 0 to 25%. On the same count and under the same terms, in the case of `N=C(N)c1ccc2cc(C(=O)NC3CCC(F)(F)CC3)n(Cc3cccc(C(N)=O)c3)c2c1` [Compound I-230, 6-Carbamimidoyl-1-(3-carbamoylbenzyl)-N-(4-difluorocyclohexyl)-1H-indole-2-carboxamide] it was 0 to 25%.
